# From PMC4412285, “Broadening the repertoire of melanoma-associated T-cell epitopes” (Cancer Immunology, Immunotherapy : CII, 2015)
# Molecular target: T1, HLA-A11 (Homo sapiens, UniProt P04439, A114D/F33Y/S129P)
# T1 construct: made in house; host or cells: Escherichia coli
# Assay: MHC ELISA after UV light-mediated peptide exchange
# Assay type: binding
# Parameters: key: 1 = confirm ed ligand
# Details: MHC rescue after UV-induced peptide exchange, absorbance normalized to control ligand HLA-A11/EBV EBNA4AVF, selected if above 0.90 of control in either of two experiments, duplicates
row,Confirmed ligand,Sequence
1,1,AGYNCGDCK [TRP-2 102-110]
2,1,AIFDEWMKR [TRP-2 401-409]
3,1,CMTVDSLVNK [TRP-2 29-38]
4,1,FTIPYWDWR [Tyrosinase 231-239]
5,1,GTQCALTRR [Mart1 65-73]
6,1,KISGGPHISY [MAGE-A3 292-301]
7,1,LLGDNQIMPK [MAGE-A3 189-198]
8,1,MGFNCGNCK [Tyrosinase 96-104]
9,1,MVPFIPLYR [Tyrosinase 426-434]
10,1,NQMGRNSMK [TRP-2 310-318]
11,1,PLMETHLSSK [TRP-2 504-513]
12,1,QTSAGHFPR [Tyrosinase 14-22]
13,1,QYFFPVIFSK [MAGE-A3 144-153]
14,1,RALVETSYVK [MAGE-A3 276-285]
15,1,RTKAWNRQLY [gp100 40-49]
16,1,SSLPTTMNY [MAGE-A3 69-77]
17,1,SVLEVFEGR [MAGE-A3 226-234]
18,1,VSCQGGLPK [gp100 514-522]
19,1,VTVYHRRGSR [gp100 186-195]
20,1,YMVPFIPLYR [Tyrosinase 425-434]

# Molecular target: T2, HLA-B7 (Homo sapiens, UniProt P01889)
# T2 construct: made in house; host or cells: Escherichia coli
# Assay: MHC ELISA after UV light-mediated peptide exchange
# Assay type: binding
# Parameters: key: 1 = confirm ed ligand
# Details: MHC rescue after UV-induced peptide exchange, absorbance normalized to control ligand HLA-B7/CMV pp65RPH, selected if above 0.70 of control in either of two experiments, duplicates
row,Confirmed ligand,Sequence
1,1,APAFLPWHRL [Tyrosinase 204-213]
2,1,APLGPQFPF [Tyrosinase 63-71]
3,1,APPLPVPGVL [NY-ESO-1 113-122]
4,1,APRGPHGGA [NY-ESO-1 60-68]
5,1,APRGPHGGAA [NY-ESO-1 60-69]
6,1,CPIGENSPL
7,1,CPIGENSPLL
8,1,CPRLGAESA [TRP-2 41-49]
9,1,FPRACVSSK [Tyrosinase 20-28]
10,1,GAAMVGAVL
11,1,GPHISYPPL [MAGE-A3 296-304]
12,1,GPNCTERRLL [Tyrosinase 109-118]
13,1,GPRGAGAARA [NY-ESO-1 44-53]
14,1,IPLYRNGDF [Tyrosinase 430-438]
15,1,LPEEKQPLL [Tyrosinase 507-515]
16,1,LPEEKQPLLM [Tyrosinase 507-516]
17,1,LPHSAANDPI [TRP-2 382-391]
18,1,LPHSSSHWL [gp100 630-638]
19,1,LPSPACQLVL

row,Confirmed ligand,Sequence
1,1,LPTTMNYPL [MAGE-A3 71-79]
2,1,MPREDAHFI [Mart1 1-9]
3,1,RAMLGTHTM [gp100 176-184]
4,1,RAREPVTKA [MAGE-A3 125-133]
5,1,RLRKGYTPL [TRP-2 497-505]
6,1,RLVKRQVPL [gp100 465-473]
7,1,RPWSGPYIL [TRP-2 69-77]
8,1,SPLLSGQQV [gp100 653-661]
9,1,SPQEREQFL [TRP-2 134-142]
10,1,SPQGASSLPT [MAGE-A3 64-73]
11,1,TPAEVSIVV [gp100 401-409]
12,1,TPAEVSIVVL [gp100 401-410]
13,1,TPEATGMTPA [gp100 394-403]
14,1,TPRLPSSAD [Tyrosinase 309-317]
15,1,VIRQNIHSL [TRP-2 125-133]
16,1,VPFSVSVSQL [gp100 213-222]
17,1,VPLAHSSSA [gp100 198-206]
18,1,VPLAHSSSAF [gp100 198-207]
19,1,YPEWTEAQRL [gp100 49-58]
